Assay results: ChEMBL document CHEMBL1145712, “Two new lignans with activity against influenza virus from the medicinal plant Rhinacanthus nasutus” (J Nat Prod, 1997)
Converted amounts (≈) assume the structure as drawn.

Columns and labels:
[1] = system: Influenza A virus; assay: Antiviral activity against influenza A virus NJH1N1 in MDCK cells by hemadsorption-inhibition assay; format: functional, organism-based
[2] = Selectivity index, ratio of IC50 for MDCK cells to EC50 for influenza A virus NJH1N1; format: toxicity, cell-based; settings: dog, read-out: Ratio IC50/EC50
[3] = system: MDCK; assay: Cytotoxicity against MDCK cells by neutral red assay; format: cell-based; settings: Canis lupus familiaris
[4] = Selectivity index, ratio of IC50 for MDCK cells to EC50 for influenza A virus NWS33; format: toxicity, cell-based; settings: dog, read-out: Ratio IC50/EC50
[5] = system: Influenza A virus; assay: Antiviral activity against influenza A virus NWS33 in MDCK cells assessed as inhibition of viral cytopathic effect by neutral red assay; format: functional, organism-based
[6] = system: Vero; assay: Cytotoxicity against african green monkey Vero cells by MTT assay; format: cell-based; settings: Chlorocebus sabaeus
[7] = Selectivity index, ratio of IC50 for african green monkey Vero cells to EC50 for HSV2 MS
[8] = system: Human alphaherpesvirus 2; assay: Antiviral activity against HSV2 MS in african green monkey Vero cells by viral cytopathic effect assay; format: functional, organism-based; settings: Human alphaherpesvirus 2, MS

SMILES	EC50 [1] [µg/mL]	selectivity ratio [2]	IC50 [3] [µg/mL]	selectivity ratio [4]	EC50 [5] [µg/mL]	IC50 [6] [µg/mL]	Ratio IC50/EC50 [7]	EC50 [8] [µg/mL]
NC12CC3CC(CC(C3)C1)C2 [AMANTADINE]	0.054 (≈ 0.357 µM)	1000	56 (≈ 370 µM)					
NC(=O)c1ncn([C@@H]2O[C@H](CO)[C@@H](O)[C@H]2O)n1 [RIBAVIRIN]			> 200	> 59	3.7 (≈ 15.2 µM)			
COC(=O)C(Cc1ccc2c(c1)OCO2)C(Cc1cc(OC)c2c(c1)OCO2)C(=O)OC (stereo unspecified) [RHINACANTHIN F]	< 0.94	> 18	17 (≈ 38.3 µM)	6.8	3.1 (≈ 6.98 µM)	4.4 (≈ 9.9 µM)		
Nc1nc2c(ncn2COCCO)c(=O)[nH]1 [ACYCLOVIR]						> 100	>60	1.5 (≈ 6.66 µM)
COC(=O)/C(=C/c1ccc2c(c1)OCO2)C(Cc1cc(OC)c2c(c1)OCO2)C(=O)OC (stereo unspecified) [RHINACANTHIN E]	1.7 (≈ 3.84 µM)	26	44 (≈ 99.5 µM)	15	7.4 (≈ 16.7 µM)	17 (≈ 38.4 µM)		
